Data as given in ChEMBL document CHEMBL3421542, “Pure Diastereomers of a Tranylcypromine-Based LSD1 Inhibitor: Enzyme Selectivity and In-Cell Studies” (ACS Med Chem Lett, 2015).

Experiments:
[1] = Inhibition of colony formation in mouse acute promyelocytic leukemic cell at 0.25 uM after 7 days by colony forming unit assay; type: functional; settings: 168 h
[2] = Induction of cell differentiation in mouse acute promyelocytic leukemic cells; type: functional
[3] = Induction of cell differentiation in human NB4 cells assessed as upregulation of CD11B expression; type: functional, cell-based; settings: NB-4
[4] = target: T1, MAO-B (amine oxidase [flavin-containing] B) (Homo sapiens, UniProt P27338); assay: Inhibition of human recombinant MAOB expressed in Pichia pastoris at 100 uM incubated for 15 mins prior to substrate addition measured after 30 mins by luminescence assay
T1 sequence (P27338 whole entry): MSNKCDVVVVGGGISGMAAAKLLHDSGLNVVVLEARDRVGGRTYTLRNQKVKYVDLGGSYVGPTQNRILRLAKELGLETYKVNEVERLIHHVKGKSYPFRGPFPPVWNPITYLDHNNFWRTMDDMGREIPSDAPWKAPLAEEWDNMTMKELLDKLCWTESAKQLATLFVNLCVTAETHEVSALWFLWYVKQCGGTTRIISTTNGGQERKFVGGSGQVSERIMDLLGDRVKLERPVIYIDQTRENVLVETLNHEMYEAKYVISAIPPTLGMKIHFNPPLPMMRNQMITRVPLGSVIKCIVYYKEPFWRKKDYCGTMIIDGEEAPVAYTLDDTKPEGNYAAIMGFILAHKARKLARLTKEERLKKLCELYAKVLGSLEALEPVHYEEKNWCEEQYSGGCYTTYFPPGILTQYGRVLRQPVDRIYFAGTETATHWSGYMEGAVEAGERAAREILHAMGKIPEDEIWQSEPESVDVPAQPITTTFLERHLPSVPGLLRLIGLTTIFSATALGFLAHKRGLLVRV

[5] = target: T2, Amine oxidase [flavin-containing] B (Homo sapiens, UniProt P27338); assay: Inhibition of human recombinant MAOB expressed in Pichia pastoris incubated for 15 mins prior to substrate addition measured after 30 mins by luminescence assay
T2 sequence (P27338 whole entry): T1 sequence (P27338 whole entry)

With Cl.NC1CC1c1ccc(NC(=O)C(Cc2ccccc2)NC(=O)OCc2ccccc2)cc1 (mixture of isomers) as the compound, how does the inhibition at 0.25 µM [1] read?
The inhibition at 0.25 µM was 36.8%.

And the Activity [2]?
Its Activity is 77.9%.

What about the Activity [3] of the same compound?
Its Activity is 77.9%.

And the inhibition at 0.5 h, 100 µM [4]?
The inhibition at 0.5 h, 100 µM was 40%.

Which inhibition at 0.25 µM [1] does the source give for N[C@@H]1C[C@H]1c1ccc(NC(=O)[C@H](Cc2ccccc2)NC(=O)OCc2ccccc2)cc1 here?
Its inhibition at 0.25 µM is 59.2%.

What about the IC50 [5] of the same compound?
The IC50 was 32 µM.

For N[C@H]1C[C@@H]1c1ccc(NC(=O)[C@@H](Cc2ccccc2)NC(=O)OCc2ccccc2)cc1, which inhibition at 0.5 h, 100 µM [4] is on record?
The inhibition at 0.5 h, 100 µM was 14%.

For N[C@@H]1C[C@H]1c1ccc(NC(=O)[C@@H](Cc2ccccc2)NC(=O)OCc2ccccc2)cc1, which inhibition at 0.25 µM [1] is on record?
Its inhibition at 0.25 µM is 59.6%.

And the inhibition at 0.5 h, 100 µM [4]?
Its inhibition at 0.5 h, 100 µM is 33%.

For N[C@H]1C[C@@H]1c1ccc(NC(=O)[C@H](Cc2ccccc2)NC(=O)OCc2ccccc2)cc1, which IC50 [5] is on record?
Its IC50 is 42.6 µM.
